In brackets after ≈: the same amount, converted by molar mass. Read-outs that look alike come from different tables or passages of the source.
Assays:
S. aureus ATCC®43300™ [1] = assay: Antimicrobial susceptibility testing in water-in-oil droplets, strain with or without induction of resistance; conditions: for MIC: Staphylococcus aureus
Method: They comprised Escherichia coli (ATCC®25922™), Staphylococcus aureus (ATCC®29212™), Enterococcus faecalis (ATCC®29212™) and Candida albicans (ATCC®24433™). […] This strain is known to carry an heterogeneous resistance phenotype was also used with or without induction with cephalosporins.
Each strain was stored as −80° C. frozen stock. Except when indicated, after overnight cultures in Trypto-casein-soy broth (TCS; Bio-Rad, Marnes 1a Coquette, France), all bacterial strains were started from the same adjusted turbidity which was equivalent to 1:100 of a 0.5 McFarland in TCS. For the Candida albicans, the starting turbidity was equivalent to a 1:10 of a 0.1 McFarland.
Droplets were prepared according to the manufacturer instructions (Bio-Rad) using QX200™ Droplet Generation Oil for EvaGreen (+surfactant) with the mixing parameters adjusted for sample volume and approximate number of microorganisms. Turbidity adjusted cultures were diluted in aqueous-phase reagents with a known concentration of antibiotic or antifungal agents in a 1:1 ratio of TCS culture to aqueous phase reagents (v/v, 10 μL/10 μL).
As soon as the droplets were prepared, the cartridges, protected by an adhesive film, were directly incubated at 37° C. (at 30° C. for the C. albicans).
After 4 and 6 hours of incubation, droplets were pipetted and introduced into cell counting slides (Bio-Rad). The microorganisms were then observed in the droplets using a microscope (objective 100× or 400×). The approximate counts of droplets carrying microorganisms as their growth inside the droplets were reported.
The minimal inhibitory concentration (MIC) was determined as the lowest concentration of an antimicrobial agent that prevents visible growth of a microorganism (i.e. a total absence of bacteria or a total absence of fungal growth observable in droplets using the microscope).

S. aureus ATCC®43300™ [2] = conditions: cited from earlier work
S. aureus ATCC®29213™ [3] = assay: Antimicrobial susceptibility testing in water-in-oil droplets, microscope reading; assay type: cell-based, Staphylococcus aureus; conditions: for Growth in droplets (observation in words): 2 mg/L
Method: (at 30° C. for the C. albicans).

S. aureus ATCC®29213™ [4] = conditions: cited from earlier work
MRSA ATCC BAA 2312 = assay: Droplets with labeled anti-PBP2a antibody, BSA +/- cefoxitin: growth and labeling; assay type: cell-based, Staphylococcus aureus; conditions: 3 h at 37° C.
Method: In another experiment, an anti-PBP2a antibody (Biosource clone M0071933) that recognizes PBP2a indicative of the resistance against methicillin in Staphylococcus aureus (SA) was labeled using Kit Lynx LNK174PETR (Abd Serotec). […] After incubation at 37° C. for 3 hours, the samples were read using the ZOE™ Fluorescent Cell Imager (Bio-Rad Laboratories). The tables below show growth (visible) and labeling (fluorescence) obtained for the tested strains of MSSA and MRSA.

bacteria or yeast = assay: Turbidity of a culture over time in the presence and absence of PI; assay type: cell-based; conditions: presence vs absence of PI
Method: FIGS. 13A and 13B are a sample of SA+PI without FOX after 6 h of incubation. FIGS. 14A-14C are SA+PI+0.25 mg/L FOX after 6 h of incubation. FIGS. 15A-15C are SA+PI+0.5 mg/L FOX after 6 h of incubation. FIGS. 16A-16C are SA+PI+4 mg/L FOX after 6 h of incubation. PI is excluded from viable cells and penetrates the cell membranes of dead or dying cells. […] Intercalating agents are considered toxic for cell growth because they react with DNA, blocking the replication of the cells.

[5] = test system: Aspergillus restrictus CECT 20807; assay: Inhibition of mold growth outside the droplet aqueous phase, antifungal in oil phase; assay type: cell-based; conditions: YCG broth
[6] = test system: Erotium rubrum CECT 20807; assay: as above; assay type: cell-based
Method: (§1) Usual foodborne mold strains were grown until the sporulation state (usually for 5 to 7 days) on the appropriate culture medium at 28° C. Spores were then scraped into 0.05% Tween 80 sterile solution. The collected suspensions were filtered on several layers of gauze compressed to eliminate most of the hyphae and mycelium fragments. When necessary, the suspensions were kept under stirring in the dark and at room temperature before the filtration step to ensure optimal spore release from the fungal structures. The spore concentration was determined in a hemocytometer chamber and/or by plating on agar Petri plates.
(§2) The suspensions were then centrifuged for 5 minutes at 10.000 rpm and the supernatants discarded. The pellets were resuspended with the appropriate volume of YGC broth containing 30% of glycerol and the aliquots were stored at −20° C. for up to 6 months.
(§3) Aliquots were thawed at room temperature and washed once in YGC broth to remove glycerol. The spores were then diluted to the concentration of 10^5 spores/mL in YGC broth containing 5% of Pluronic F68 surfactant.
(§4) Dicloran stock solution was prepared at 40 mg/mL in acetone. The stock solution was then diluted to produce working solutions according to table below.
(§5) A volume of 10 μL of the appropriate working solution was then added to 2 mL of Oil for Eva Green to reach the targeted final concentrations (0.5% v/v) (see the table below).
(§6) For droplet generation using the QX200™ Droplet generator, the ‘sample’ and ‘oil’ wells of a DG8 cartridge were respectively filled with […], of the prepared spore suspension (with or without CFDA) and 70 μL of the Oil for Eva Green (with or without Dicloran). After the generation process, the droplet emulsions (30-35 μL/well) were transferred to a 96-well Eppendorf plate and placed at 28° C. for 24 to 48 hours.

[7] = test system: Mucor racemosus CECT 20821; assay: as above; assay type: cell-based; conditions: YCG broth, 48 hours
Method: as §1, §2, §3, §4, §5, §6

[8] = test system: usual foodborne mold strains; assay: as above; assay type: cell-based; conditions: 40 to 100 mg/L in the oil for EvaGreen, 28° C., 24 to 48 hours
Method: as §1, §2, §3, §4, §5, §6

[9] = test system: Fusarium graminearum DSM 1096; assay type: cell-based; conditions: 100 mg/L in the oil phase, YCG broth, 48 hours
[10] = test system: Penicillium hirsutum ATCC 16025; assay: Inhibition of mold growth outside the droplet aqueous phase, antifungal in oil phase; assay type: cell-based; conditions: 80 mg/L in the oil phase, YCG broth, 24 hours

In the case of `CO[C@@]1(NC(=O)Cc2cccs2)C(=O)N2C(C(=O)O)=C(COC(N)=O)CS[C@@H]21` [Cefoxitin], the “Growth in droplets (observation in words)” value (shortened to “Growth in droplets”) (S. aureus ATCC®43300™ [1]; 4 mg/L, 4 h w/o induction) is reported as “No growth”, the “Growth in droplets” value (S. aureus ATCC®43300™ [1]; 4 mg/L, 4 h with induction) is reported as “Limited growth” and the “Growth in droplets” value (S. aureus ATCC®43300™ [1]; 4 mg/L, 6 h w/o induction) is reported as “Limited growth (few”. For the same compound, the “Growth in droplets” value (S. aureus ATCC®43300™ [1]; 4 mg/L, 6 h with induction) was “Limited growth”, the “Growth in droplets” value (S. aureus ATCC®43300™ [1]; 8 mg/L, 4 h with induction) was “Limited growth in few” and the “Growth in droplets” value (S. aureus ATCC®43300™ [1]; 8 mg/L, 6 h w/o induction) was “No growth”. For the same compound, the “Growth in droplets” value (S. aureus ATCC®43300™ [1]; 8 mg/L, 6 h with induction) was 1 droplet with cells, the “Growth in droplets” value (S. aureus ATCC®43300™ [1]; 16 mg/L, 4 h with induction) was “Very limited growth” and the “Growth in droplets” value (S. aureus ATCC®43300™ [1]; 16 mg/L, 6 h with induction) was “No growth”. For the same compound, the “Growth in droplets” value (S. aureus ATCC®43300™ [1]; 32 mg/L, 4 h with induction) was “No growth”, the MIC (S. aureus ATCC®43300™ [1]; ATCC43300, read-out: Observed MIC, using non induced strain) was 2 to 4 µg/mL (≈ 4.68 to 9.36 µM) and the MIC (S. aureus ATCC®43300™ [1]; ATCC43300, read-out: Observed MIC, with induced strain) was 16 to 32 µg/mL (≈ 37.4 to 74.9 µM). For the same compound, the “Expected MIC (JCM)” value (S. aureus ATCC®43300™ [2]) was 16 to 32 µg/mL, the “Growth in % of droplets” value (S. aureus ATCC®29213™ [3]; 0.5 mg/L, reading time 4 h) was 20-30% of droplets and the “Growth in % of droplets” value (S. aureus ATCC®29213™ [3]; 1 mg/L, reading time 4 h) was ~20% of droplets. The “Growth in % of droplets” value (S. aureus ATCC®29213™ [3]; 1 mg/L, reading time 6 h) was “Growth in <50% of”, the “Growth in droplets” value (S. aureus ATCC®29213™ [3]; reading time 4 h) was “No growth” and the “Growth in droplets” value (S. aureus ATCC®29213™ [3]; reading time 6 h) was “No growth”. For the same compound, the MIC (S. aureus ATCC®29213™ [3]; Staphylococcus aureus, ATCC29213, droplets at 37° C., read after 4 and 6 h, read-out: Observed MIC) was 2 µg/mL (≈ 4.68 µM), the “Expected MIC (CLSI)” value (S. aureus ATCC®29213™ [4]) was 1 to 4 µg/mL and the “Growth (visible)” value (MRSA ATCC BAA 2312; BSA 0 + FOX 2 mg/L) was “Growth +<”. The “Growth (visible)” value (MRSA ATCC BAA 2312; BSA 2.5% + FOX 2 mg/L) was “Growth +>”.

In the case of `CC[N+](C)(CC)CCC[n+]1c(-c2ccccc2)c2cc(N)ccc2c2ccc(N)cc21.[I-].[I-]` [PI, propidium iodide], the “Impact on growth of bacteria or yeast” value (bacteria or yeast) is reported as “only a limited impact”.

For `Nc1c(Cl)cc([N+](=O)[O-])cc1Cl` [dicloran, 2,6-dichloro-4-nitroaniline], the “Mold growth outside the aqueous phase” value ([5]; 80 mg/L in the oil phase, 24 hours) was “inhibition of mold growth outside the aqueous phase”, the “Mold growth outside the aqueous phase” value ([5]; 100 mg/L in the oil phase, 48 hours) was “inhibition of mold growth outside the aqueous phase” and the “Mold growth outside the aqueous phase” value ([6]; 60 mg/L in the oil phase, YCG broth, 24 hours) was “inhibition of mold growth outside the aqueous phase”. For the same compound, the “Mold growth outside the aqueous phase” value ([6]; 80 mg/L in the oil phase, 5,6 carboxyfluorescein diacetate (25 mg/L) in the broth) was “inhibition of Erotium rubrum CECT 20807 growth outside the aqueous phase”, the “Mold growth outside the aqueous phase” value ([6]; 80 mg/L in the oil phase, YCG broth, 48 hours) was “inhibition of mold growth outside the aqueous phase” and the “Mold growth outside the aqueous phase” value ([7]; 40 mg/L in the oil phase) was “inhibition of mold growth outside the aqueous phase”. For the same compound, the “Mold growth outside the aqueous phase” value ([7]; 60 mg/L in the oil phase) was “inhibition of mold growth outside the aqueous phase”, the “Hyphae spreading and mold growth outside the droplet” value [8] was “the hyphae spreading was inhibited and mold growth was confined within the droplet” and the “Mold growth outside the aqueous phase” value [9] was “inhibition of mold growth outside the aqueous phase”. The “Mold growth outside the aqueous phase” value [10] was “inhibition of mold growth outside the aqueous phase”.

From patent US11952610B2, “Digital microbiology” (priority 2016, dated 2024)
